The record followed here is PubChem BioAssay (NCI).

Some test systems named below: SK-OV-3 ovarian; U251 CNS; HCT-15 colon; PC-3 prostate; T-47D breast; NCI/ADR-RES ovarian; A498 renal; HOP-62 NSCLC; OVCAR-4 ovarian; SK-MEL-28 melanoma.
Holding throughout (test): growth of human tumour cells (NCI), 48 h

Several values for one entry are separate records, joined by “and”; a condition that tells them apart may be missing. Equal values may be shown once.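 The compound was tested at five concentrations on cells cultured in 96-well plates, with a 48-hour exposure period. The concentration for 50% growth inhibition is given as GI50. TGI: total growth inhibition.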

With `CCCCCCNC(=O)c1cc(NCc2cc(O)ccc2O)ccc1O`, the GI50 was 25.8 µM in the test on SK-OV-3 ovarian; 12.1 µM with U251 CNS; 2.16 µM with HCT-15 colon; 2.47 µM in the test with PC-3 prostate; 1.92 µM with T-47D breast; 5.44 µM in the test on NCI/ADR-RES ovarian. Further, the GI50 with A498 renal is 16.1 µM; in the test on HOP-62 NSCLC it was 30 µM; in the test on OVCAR-4 ovarian it was 5.62 µM; in the test with SK-MEL-28 melanoma it was 12.3 µM. In addition, the TGI in the test on SK-OV-3 ovarian was greater than 100 µM; in the test on U251 CNS it was 28.5 µM; with HCT-15 colon, 7.35 µM; with PC-3 prostate, 12 µM; with T-47D breast it was 5 µM; with NCI/ADR-RES ovarian it was 78.1 µM. Moreover, the TGI was greater than 100 µM in the test on A498 renal, 91.5 µM in the test on HOP-62 NSCLC, 19.3 µM in the test with OVCAR-4 ovarian and 25.4 µM in the test on SK-MEL-28 melanoma.
`CCN(CC)CCC(CNc1ccnc2cc(Cl)ccc12)c1ccc(OC)cc1` (stereo not given): the GI50 in the test on SK-OV-3 ovarian was 13.1 µM and 14.1 µM; in the test on U251 CNS, 4.91 µM and 3.52 µM; with HCT-15 colon it was 3.06 µM and 3.51 µM; with PC-3 prostate, 19.5 µM and 9.85 µM; in the test with T-47D breast, 2.59 µM and 2.73 µM; in the test with NCI/ADR-RES ovarian, 8.66 µM and 7.57 µM. Moreover, the GI50 in the test on A498 renal was 3.82 µM and 3.49 µM; in the test with HOP-62 NSCLC it was 14.4 µM and 9.7 µM; with OVCAR-4 ovarian, 3.7 µM and 4.66 µM; in the test on SK-MEL-28 melanoma it was 1.75 µM and 1.87 µM. Further, the TGI is 33.4 µM and 46 µM in the test on SK-OV-3 ovarian; 17.2 µM and 11.5 µM with U251 CNS; 12.3 µM and 16.5 µM in the test on HCT-15 colon; 76.3 µM and > 100 µM with PC-3 prostate; 6.66 µM and 7.85 µM in the test with T-47D breast; 47.5 µM and 34.3 µM with NCI/ADR-RES ovarian. The TGI with A498 renal is 13.4 µM and 14.1 µM; in the test on HOP-62 NSCLC, 39.2 µM and 34 µM; in the test on OVCAR-4 ovarian, 20.3 µM and 28.1 µM; with SK-MEL-28 melanoma, 3.4 µM and 3.42 µM.
`C=COCCCOc1ccccc1`: the GI50 in the test with SK-OV-3 ovarian, in the test with PC-3 prostate, in the test on T-47D breast, in the test with NCI/ADR-RES ovarian and in the test with A498 renal was greater than 100 µM each time. The TGI in the test on SK-OV-3 ovarian, with U251 CNS, with HCT-15 colon, with PC-3 prostate, in the test with T-47D breast and with NCI/ADR-RES ovarian was greater than 100 µM throughout. For the same compound, the TGI in the test on A498 renal, in the test with HOP-62 NSCLC, in the test on OVCAR-4 ovarian and with SK-MEL-28 melanoma was greater than 100 µM each time.
Consider `[Cl][Hg][c]1cc(Br)cc(Br)c1`, for which the GI50 in the test with SK-OV-3 ovarian is 4.07 µM; in the test with U251 CNS, 0.441 µM; with HCT-15 colon, 1.6 µM; in the test with PC-3 prostate it was 2.16 µM; in the test on T-47D breast, 2 µM; in the test on NCI/ADR-RES ovarian, 3.07 µM. Also, the GI50 in the test on A498 renal was 2.64 µM; with HOP-62 NSCLC, 1.83 µM; with OVCAR-4 ovarian, 2.31 µM; in the test on SK-MEL-28 melanoma, 1.57 µM. Further, the TGI stood at 13 µM in the test on SK-OV-3 ovarian; 1.67 µM in the test on U251 CNS; 3.22 µM in the test on HCT-15 colon; 7.2 µM in the test with PC-3 prostate; 7.88 µM with T-47D breast; 13.5 µM in the test with NCI/ADR-RES ovarian. Moreover, the TGI with A498 renal was 8.01 µM; with HOP-62 NSCLC, 3.52 µM; with OVCAR-4 ovarian it was 7.69 µM; in the test on SK-MEL-28 melanoma, 2.97 µM.
As to `COc1cc(C2CC(c3cccc(Br)c3)=NN2C(C)=O)cc(OC)c1OC` (stereo not given), the GI50 is 0.379 µM in the test with SK-OV-3 ovarian; 0.454 µM in the test on U251 CNS; 0.328 µM in the test on HCT-15 colon; 0.162 µM in the test with PC-3 prostate; 0.372 µM in the test with T-47D breast; 0.324 µM in the test with NCI/ADR-RES ovarian. Besides, the GI50 was 0.514 µM in the test on A498 renal, 3.56 µM with HOP-62 NSCLC, 0.624 µM in the test on OVCAR-4 ovarian and 3.8 µM in the test on SK-MEL-28 melanoma. The TGI with SK-OV-3 ovarian turned out to be 47.2 µM; in the test with U251 CNS it was 53.4 µM; in the test on HCT-15 colon it was 29.5 µM; in the test on PC-3 prostate it was 36.2 µM; in the test with T-47D breast, 29.7 µM; in the test on NCI/ADR-RES ovarian it was 34 µM. Also, the TGI in the test on A498 renal is greater than 19.7 µM; in the test with HOP-62 NSCLC it was 62.8 µM; in the test with OVCAR-4 ovarian, greater than 100 µM; in the test with SK-MEL-28 melanoma, greater than 77.9 µM.
Turning to `C=CCCCCC/C=C\[C@H](O)C#CC#C/C=C/CO`, the GI50 with SK-OV-3 ovarian is greater than 100 µM; in the test on U251 CNS, 24.5 µM; in the test with HCT-15 colon, 30 µM; in the test on PC-3 prostate, 18.6 µM; with T-47D breast, 98.4 µM; in the test with NCI/ADR-RES ovarian, 23.5 µM. The GI50 is 20.3 µM in the test on A498 renal, greater than 100 µM in the test on HOP-62 NSCLC, 90.8 µM in the test on OVCAR-4 ovarian and greater than 100 µM with SK-MEL-28 melanoma. For the same compound, the TGI in the test with SK-OV-3 ovarian is greater than 100 µM; in the test on U251 CNS it was 77.3 µM; in the test on HCT-15 colon, greater than 100 µM; in the test with PC-3 prostate, 36.1 µM; in the test with T-47D breast, greater than 100 µM; in the test with NCI/ADR-RES ovarian, 57.3 µM. The TGI in the test with A498 renal is 51.9 µM; in the test on HOP-62 NSCLC it was greater than 100 µM; with OVCAR-4 ovarian, greater than 100 µM; in the test with SK-MEL-28 melanoma it was greater than 100 µM.
Consider `COc1ccc2c(c1)CCCC(Br)C2=O` (stereo not given), for which the TGI in the test on SK-OV-3 ovarian was 14.3 µM; in the test with U251 CNS, 29.6 µM; in the test with HCT-15 colon, 12.7 µM; in the test on PC-3 prostate it was 16.7 µM; in the test with T-47D breast, greater than 100 µM; in the test with NCI/ADR-RES ovarian, greater than 29.9 µM. In addition, the TGI with A498 renal was determined as 36.4 µM; in the test with HOP-62 NSCLC it was 33.4 µM; in the test with OVCAR-4 ovarian, 20.5 µM; with SK-MEL-28 melanoma, 23.3 µM.
Consider `S=C1NC2(CCCCCC2)NN1c1ccccc1`, for which the TGI with SK-OV-3 ovarian, in the test with U251 CNS, with HCT-15 colon, in the test with PC-3 prostate, in the test on T-47D breast and in the test with NCI/ADR-RES ovarian was greater than 100 µM each time. The TGI is greater than 100 µM in the test on A498 renal, greater than 22.7 µM with HOP-62 NSCLC, greater than 100 µM with OVCAR-4 ovarian and greater than 100 µM in the test with SK-MEL-28 melanoma.
`CCN(CC)CCCC(CNc1ccnc2cc(Cl)ccc12)c1ccc(Cl)cc1` (stereo not given): the GI50 was 2 µM and 1.82 µM with SK-OV-3 ovarian; 1.54 µM and 0.95 µM with U251 CNS; 0.535 µM and 0.984 µM in the test on HCT-15 colon; 3.51 µM and 2.45 µM with PC-3 prostate; 1.64 µM and 2.06 µM in the test with T-47D breast; 2.02 µM and 2.13 µM in the test with NCI/ADR-RES ovarian. Besides, the GI50 is 1.83 µM and 1.35 µM in the test on A498 renal; 1.83 µM and 1.64 µM with HOP-62 NSCLC; 1.07 µM and 1.04 µM in the test on OVCAR-4 ovarian; 1.66 µM and 0.537 µM in the test on SK-MEL-28 melanoma. Moreover, the TGI was 4.04 µM and 3.81 µM with SK-OV-3 ovarian; 3.01 µM and 2.48 µM in the test on U251 CNS; 2.1 µM and 2.62 µM with HCT-15 colon; 13.2 µM and 10.2 µM with PC-3 prostate; 3.42 µM and 4.02 µM in the test with T-47D breast; 5.14 µM and 5.87 µM with NCI/ADR-RES ovarian. Besides, the TGI with A498 renal is 3.33 µM and 2.8 µM; in the test on HOP-62 NSCLC it was 4.23 µM and 3.73 µM; in the test on OVCAR-4 ovarian it was 4.28 µM and 3.36 µM; with SK-MEL-28 melanoma, 3.3 µM and 1.09 µM.
